# pIC50: −log10 of the molar value. Read-outs that look alike come from different tables or passages of the source.
# What was measured:
# [1] = tested on: RKO cells, mono-methyl arginine; test: RKO Methylation Assay (In Cell Western for mono-methyl arginine); format: cell-based; conditions: Homo sapiens
# Excerpt: RKO adherent cells were purchased from ATCC (American Type Culture Collection), Manassas, Va., USA. DMEM/Glutamax medium, penicillin-streptomycin, heat inactivated fetal bovine serum, 0.05% trypsin and D-PBS were purchased from Life Technologies, Grand Island, N.Y., USA. Odyssey blocking buffer, 800CW goat anti-rabbit IgG (H+L) antibody, and Licor Odyssey infrared scanner were purchased from Licor Biosciences, Lincoln, Nebr., USA. Mono-methyl arginine antibody was purchased from Cell Signaling Technology, Danvers, Mass., USA. Methanol was purchased from VWR, Franklin, Mass., USA. 10% Tween 20 was purchased from KPL, Inc., Gaithersburg, Md., USA. DRAQ5 was purchased from Biostatus Limited, Leicestershire, UK.
# RKO adherent cells were maintained in growth medium (DMEM/Glutamax medium supplemented with 10% v/v heat inactivated fetal bovine serum and 100 units/mL penicillin-streptomycin) and cultured at 37° C. under 5% CO2.
# Cell Treatment, in Cell Western (ICW) for Detection of Mono-Methyl Arginine and DNA Content. […] Compound (100 nL) from a 96-well source plate was added directly to 384 well cell plate. Plates were incubated at 37° C., 5% CO2 for 72 hours. After three days of incubation, plates were brought to room temperature outside of the incubator for ten minutes and blotted on paper towels to remove cell media. 50 μL of ice cold 100% methanol was added directly to each well and incubated for 30 min at room temperature. After 30 min, plates were transferred to a Biotek EL406 plate washer and washed 2 times with 100 μL per well of wash buffer (1×PBS). Next 60 μL per well of Odyssey blocking buffer (Odyssey Buffer with 0.1% Tween 20 (v/v)) were added to each plate and incubated 1 hour at room temperature. Blocking buffer was removed and 20 μL per well of primary antibody was added (mono-methyl arginine diluted 1:200 in Odyssey buffer with 0.1% Tween 20 (v/v)) and plates were incubated overnight (16 hours) at 4° C. Plates were washed 5 times with 100 μL per well of wash buffer. […] The plates were washed 5 times with 100 μL per well wash buffer then 2 times with 100 μL per well of water. Plates were allowed to dry at room temperature then imaged on the Licor Odyssey machine which measures integrated intensity at 700 nm and 800 nm wavelengths. Both 700 and 800 channels were scanned.
# Calculations: First, the ratio for each well was determined by:
# Each plate included fourteen control wells of DMSO only treatment (minimum activation) as well as fourteen control wells for maximum activation treated with 20 μM of a reference compound. The average of the ratio values for each control type was calculated and used to determine the percent activation for each test well in the plate. Reference compound was serially diluted three-fold in DMSO for a total of nine test concentrations, beginning at 20 μM. Percent activation was determined and EC30 curves were generated using triplicate wells per concentration of compound.
# [2] = target: human PRMT6 (Homo sapiens, UniProt Q96LA8); test: biochemical
# human PRMT6, sequence (Q96LA8 with tags, fused parts or gaps): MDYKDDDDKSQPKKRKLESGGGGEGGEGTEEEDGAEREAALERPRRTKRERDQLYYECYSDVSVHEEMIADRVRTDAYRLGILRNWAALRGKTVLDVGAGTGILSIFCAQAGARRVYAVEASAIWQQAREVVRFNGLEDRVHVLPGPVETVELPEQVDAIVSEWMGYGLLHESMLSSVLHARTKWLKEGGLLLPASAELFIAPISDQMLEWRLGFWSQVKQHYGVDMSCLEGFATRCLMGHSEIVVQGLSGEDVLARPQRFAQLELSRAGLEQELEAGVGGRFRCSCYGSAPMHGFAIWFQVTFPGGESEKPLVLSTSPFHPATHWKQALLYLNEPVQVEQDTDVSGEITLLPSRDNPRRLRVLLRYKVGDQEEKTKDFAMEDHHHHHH
# Excerpt: General Materials. S-adenosylmethionine (SAM), S-adenosylhomocysteine (SAH), bicine, Tween20, dimethylsulfoxide (DMSO), bovine skin gelatin (BSG), sodium butyrate and Tris(2-carboxyethyl)phosphine hydrochloride solution (TCEP) were purchased from Sigma-Aldrich at the highest level of purity possible. ^3H-SAM was purchase from American Radiolabeled Chemicals with a specific activity of 80 Ci/mmol. 384-well streptavidin Flashplates were purchased from PerkinElmer.
# Substrates. Peptide representative of human histone H4 residues 36-50 was synthesized with an N-terminal linker-affinity tag motif and a C-terminal amide cap by 21st Century Biochemicals. The peptide was purified by high-performance liquid chromatography (HPLC) to greater than 95% purity and confirmed by liquid chromatography mass spectrometry (LC-MS). The sequence was Biot-Ahx-[…]-amide and contained a monomethylated lysine at position 44 (SEQ ID NO.:5).
# Molecular Biology: Full-length human PRMT6 (NM_018137.2) transcript clone was amplified from an HEK 293 cDNA library, incorporating a flanking 5′ sequence encoding a FLAG tag ([…]) (SEQ ID NO.:6) fused directly to Ser 2 of PRMT6 and a 3′ sequence encoding a hexa His sequence (HHHHHH) (SEQ ID NO.: 17) fused directly to Asp 375. The amplified gene was subcloned into pFastBacMam (Viva Biotech).
# Protein Expression. Recombinant baculovirus were generated according to Bac-to-Bac kit instructions (Life Technologies). […] Infections were carried out at 37° C. for 48 hours, harvested by centrifugation, and stored at −80° C. for purification.
# Protein Purification. […] Column was washed with 20 mM imidazole in the same buffer and Flag-PRMT6-His was eluted with 150 mM imidazole. Pooled fractions were dialysed against buffer Ni-A and further purified by anti-flag M2 affinity chromatography. Flag-PRMT6-His was eluted with 200 ug/ml FLAG peptide in the same buffer. Pooled fractions were dialysed in 20 mM Tris, 150 mM NaCl, 10% glycerol and 5 mM β-mercaptoethanol, pH 7.8. The purity of recovered protein was 95%.
# General Procedure for PRMT6 Enzyme Assays on Peptide Substrates. The assays were all performed in a buffer consisting of 20 mM Bicine (pH=7.6), 1 mM TCEP, 0.005% BSG, and 0.002% Tween 20, prepared on the day of use. Compounds in 100% DMSO (1 ul) were spotted into a polypropylene 384-well V-bottom plates (Greiner) using a Platemate Plus outfitted with a 384-channel head (Thermo Scientific). DMSO (1 ul) was added to Columns 11, 12, 23, 24, rows A-H for the maximum signal control and 1 ul of SAH, a known product and inhibitor of PRMT6, was added to columns 11, 12, 23, 24, rows I-P for the minimum signal control. A cocktail (40 ul) containing the PRMT6 enzyme was added by Multidrop Combi (Thermo-Fisher). The compounds were allowed to incubate with PRMT6 for 30 min at room temperature, then a cocktail (10 ul) containing SAM and peptide was added to initiate the reaction (final volume=51 ul). The final concentrations of the components were as follows: PRMT6 was 1 nM, ^3H-SAM was 200 nM, non-radiolabeled SAM was 250 nM, peptide was 75 nM, SAH in the minimum signal control wells was 1 mM, and the DMSO concentration was 2%. The assays were stopped by the addition of non-radiolabeled SAM (10 ul) to a final concentration of 400 uM, which dilutes the ^3H-SAM to a level where its incorporation into the peptide substrate is no longer detectable. 50 ul of the reaction in the 384-well polypropylene plate was then transferred to a 384-well Flashplate and the biotinylated peptides were allowed to bind to the streptavidin surface for at least 1 hour before being washed once with 0.1% Tween20 in a Biotek EL×405 plate washer. The plates were then read in a PerkinElmer TopCount plate reader to measure the quantity of ^3H-labeled peptide bound to the Flashplate surface, measured as disintegrations per minute (dpm) or alternatively, referred to as counts per minute (cpm). […]
# [3] = In Cell Western EC30, RKO cells, 72 hours, single experiment or average of multiple experiments, read-out: RGG ICW
# [4] = In Cell Western, RKO cells, 72 hours, read-out: RGG ICW EC30
# [5] = biochemical evaluation, peptide substrate, read-out: PRMT6 IC50
# [6] = single experiment or average of multiple experiments, read-out: PRMT6 biochemical evaluation (numerical)
# [7] = RKO, 72 h, read-out: RGG ICW EC30
smiles,measurement,setting,value
CN(CCN)Cc1n[nH]c2ccc(OCc3ccccc3)cc12 [Compound 1B],EC30,[1]; [3],1710 nM
same,EC30,[1]; [4],< 3000 nM
same,pIC50,[2]; [5],> 7.00
same,pIC50,[2]; [6],8.03
"CC(C)COc1ccc2[nH]nc(CN(C)CCN)c2c1 [Compound 2, N1-((5-iso-butoxy-1H-indazol-3-yl)methyl)-N1-methylethane-1,2-diamine]",EC30,[1]; [3],4210 nM
same,EC30,[1]; [4],3010 to 12000 nM
same,pIC50,[2]; [5],6.00 to 7.00
same,pIC50,[2]; [6],6.95
"CNCCN(C)Cc1nn(C)c2ccc(OCC(C)C)cc12 [Compound 3, N^1-((5-iso-butoxy-1-methyl-1H-indazol-3-yl)methyl)-N^1,N^2-dimethylethane-1,2-diamine]",EC30,[1]; [3],14000 nM
same,EC30,[1]; [4],> 12000 nM
same,pIC50,[2]; [5],6.00 to 7.00
same,pIC50,[2]; [6],6.29
"CNCCN(C)Cc1n[nH]c2ccc(OCCOC)cc12 [Compound 5, N^1-((5-(2-methoxyethoxy)-1H-indazol-3-yl)methyl)-N^1,N^2-dimethylethane-1,2-diamine]",EC30,[1]; [3],11400 nM
same,EC30,[1]; [4],3010 to 12000 nM
same,pIC50,[2]; [5],> 7.00
same,pIC50,[2]; [6],7.07
CNCCN(C)Cc1n[nH]c2ccc(OCCCOC)cc12 [Compound 6],EC30,[1]; [3],1550 nM
same,EC30,[1]; [4],< 3000 nM
same,pIC50,[2]; [5],> 7.00
same,pIC50,[2]; [6],7.41
CNCCN(C)Cc1n[nH]c2ccc(OCCc3ccccc3)cc12 [Compound 7],EC30,[1]; [3],791 nM
same,EC30,[1]; [4],< 3000 nM
same,pIC50,[2]; [5],> 7.00
same,pIC50,[2]; [6],8.17
CNCCN(C)Cc1n[nH]c2ccc(OCCC(C)C)cc12 [Compound 8],EC30,[1]; [3],930 nM
same,EC30,[1]; [4],< 3000 nM
same,pIC50,[2]; [5],> 7.00
same,pIC50,[2]; [6],7.25
CNCCN(C)Cc1n[nH]c2ccc(OC(C)Cc3ccccc3)cc12 (stereo not shown) [Compound 9],EC30,[1]; [3],3430 nM
same,EC30,[1]; [4],3010 to 12000 nM
same,pIC50,[2]; [5],> 7.00
same,pIC50,[2]; [6],7.86
"CNCCN(C)Cc1n[nH]c2ccc(Oc3ccccc3)cc12 [Compound 10, N^1,N^2-dimethyl-N^1-((5-phenoxy-1H-indazol-3-yl)methyl)ethane-1,2-diamine]",EC30,[1]; [3],3830 nM
same,EC30,[1]; [4],3010 to 12000 nM
same,pIC50,[2]; [5],6.00 to 7.00
same,pIC50,[2]; [6],6.90
CNCCN(C)Cc1n[nH]c2ccc(OC3CCCC3)cc12 [Compound 11],EC30,[1]; [3],724 nM
same,EC30,[1]; [4],< 3000 nM
same,pIC50,[2]; [5],> 7.00
same,pIC50,[2]; [6],8.01
CNCCN(C)Cc1n[nH]c2ccc(OCc3ccccn3)cc12 [Compound 12],EC30,[1]; [3],6060 nM
same,EC30,[1]; [4],3010 to 12000 nM
same,pIC50,[2]; [5],> 7.00
same,pIC50,[2]; [6],7.36
CNCCN(C)Cc1n[nH]c2ccc(OCc3ccc(C#N)cc3)cc12 [Compound 13],EC30,[1]; [3],3820 nM
same,EC30,[1]; [4],3010 to 12000 nM
same,pIC50,[2]; [5],> 7.00
same,pIC50,[2]; [6],8.35
CNCCN(C)Cc1n[nH]c2ccc(OCc3cccc(C#N)c3)cc12 [Compound 14],EC30,[1]; [3],4140 nM
same,EC30,[1]; [4],3010 to 12000 nM
same,pIC50,[2]; [5],> 7.00
same,pIC50,[2]; [6],8.28
CNCCN(C)Cc1n[nH]c2ccc(OCc3cc[nH]n3)cc12 [Compound 17],EC30,[1]; [7],> 12000 nM
same,EC30,[1]; [3],8990 nM
same,pIC50,[2]; [5],> 7.00
same,pIC50,[2]; [6],8.11
CNCCN(C)Cc1n[nH]c2ccc(OC3CCCCC3)cc12 [Compound 18],EC30,[1]; [3],582 nM
same,EC30,[1]; [4],< 3000 nM
same,pIC50,[2]; [5],> 7.00
same,pIC50,[2]; [6],7.99
CNCCN(C)Cc1n[nH]c2ccc(OCC(C)c3ccccc3)cc12 (stereo not shown) [Compound 19],EC30,[1]; [3],680 nM
same,EC30,[1]; [4],< 3000 nM
same,pIC50,[2]; [5],> 7.00
same,pIC50,[2]; [6],7.71
CNCCN(C)Cc1n[nH]c2ccc(OCc3ccn(C)n3)cc12 [Compound 20],EC30,"[1]; RKO, 72 h, read-out: RGG ICW",710 nM
same,EC30,[1]; [7],< 3000 nM
same,pIC50,[2]; [5],> 7.00
same,pIC50,[2]; [6],7.43
CNCCN(C)Cc1n[nH]c2cccc(OCc3ccccc3)c12 [Compound 21],EC30,[1]; [3],912 nM
same,EC30,[1]; [4],< 3000 nM
same,pIC50,[2]; [5],> 7.00
same,pIC50,[2]; [6],7.67
CNCCN(C)Cc1n[nH]c2ccc(Oc3cccc(OC)c3)cc12 [Compound 22],EC30,[1]; [3],1490 nM
same,EC30,[1]; [4],< 3000 nM
same,pIC50,[2]; [5],> 7.00
same,pIC50,[2]; [6],7.48
CNCCN(C)Cc1n[nH]c2ccc(OCc3ccc(C(C)=O)cc3)cc12 [Compound 23],EC30,[1]; [3],1760 nM
same,EC30,[1]; [4],< 3000 nM
same,pIC50,[2]; [5],> 7.00
same,pIC50,[2]; [6],7.02
CNCCN(C)Cc1n[nH]c2ccc(Oc3ccccc3OC)cc12 [Compound 24],EC30,"[1]; RKO, 72 h, read-out: RGG ICW",1930 nM
same,EC30,[1]; [7],< 3000 nM
same,pIC50,[2]; [5],6.00 to 7.00
same,pIC50,[2]; [6],7.10
"CNCCN(C)Cc1n[nH]c2ccc(OC3CCOC3)cc12 (stereo not shown) [Compound 25, N^1,N^2-dimethyl-N^1-((5-((tetrahydrofuran-3-yl)oxy)-1H-indazol-3-yl)methyl)ethane-1,2-diamine]",EC30,[1]; [3],2660 nM
same,EC30,[1]; [4],< 3000 nM
same,pIC50,[2]; [5],> 7.00
same,pIC50,[2]; [6],8.30
CNCCN(C)Cc1n[nH]c2ccc(Oc3cccc(C)c3)cc12 [Compound 26],EC30,"[1]; RKO, 72 h, read-out: RGG ICW",3070 nM
same,EC30,[1]; [7],3010 to 12000 nM
same,pIC50,[2]; [5],6.00 to 7.00
same,pIC50,[2]; [6],6.70
"CNCCN(C)Cc1n[nH]c2ccc(Oc3cccc(Cl)c3)cc12 [Compound 27, N^1-((5-(3-chlorophenoxy)-1H-indazol-3-yl)methyl)-N^1,N^2-dimethylethane-1,2-diamine]",EC30,"[1]; RKO, 72 h, read-out: RGG ICW",4470 nM
same,EC30,[1]; [7],3010 to 12000 nM
same,pIC50,[2]; [5],6.00 to 7.00
same,pIC50,[2]; [6],7.27
CNCCN(C)Cc1n[nH]c2ccc(Oc3cccc(C#N)c3)cc12 [Compound 28],EC30,"[1]; RKO, 72 h, read-out: RGG ICW",4620 nM
same,EC30,[1]; [7],3010 to 12000 nM
same,pIC50,[2]; [5],6.00 to 7.00
same,pIC50,[2]; [6],6.82
